PubChem BioAssay (NCI)
Where “and” joins values, the source holds several entries; their conditions need not be identical. Equal entries are not always repeated.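 The compound was tested at five concentrations on cells cultured in 96-well plates, with a 48-hour exposure period. The concentration for 50% growth inhibition is given as GI50. TGI denotes the concentration required for complete inhibition of growth.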

How the values were obtained:
Experiment in all cases: NCI anticancer screen, dose series, 48 h
[1] = tested on: UACC-257 melanoma
[2] = tested on: HL-60(TB) leukemia
[3] = tested on: HCT-15 colon
[4] = tested on: ACHN renal
[5] = tested on: SK-MEL-28 melanoma
[6] = tested on: HT29 colon
[7] = tested on: M14 melanoma
[8] = tested on: EKVX NSCLC
[9] = tested on: HS 578T breast
[10] = tested on: RPMI-8226 leukemia

Compound	GI50 [1] [µM]	TGI [1] [µM]	GI50 [2] [µM]	TGI [2] [µM]	GI50 [3] [µM]	TGI [3]	GI50 [4] [µM]	TGI [4] [µM]	GI50 [5] [µM]	TGI [5] [µM]	GI50 [6] [µM]	TGI [6] [µM]	GI50 [7] [µM]	TGI [7] [µM]	GI50 [8] [µM]	TGI [8] [µM]	GI50 [9] [µM]	TGI [9] [µM]	GI50 [10] [µM]	TGI [10] [µM]
OCC1OC(N2C=C(c3nc4ccccc4s3)C3C=CC=CC32)C(O)C(O)C1O (stereo unspecified)	14.8	42.9	17.1	> 50	31.1	> 50 µM	14.7	> 50	19.2	> 50	19	> 50	15.3	> 50	18.1	> 50	20.1	> 50	11.4	36.4
Clc1cc(Br)ccc1-c1ccc(CNCC2CCNCC2)o1	1.85	3.51	1.89	3.99	1.86	4.29 µM	1.93	3.66	1.89	3.42	1.44	3.11	1.85	3.7	–	–	1.91	4.37	1.86	4.46
O=S(O)O.O=S(O)O.[Co].[NH2-].[NH2-].[NH2-].[NH2-]	> 100	> 100	> 100	> 100	> 100	> 100 µM	> 100	> 100	> 100	> 100	> 100	> 100	> 100	> 100	> 100	> 100	> 100	> 100	> 100	> 100
CC1(C)C(=O)/C=C\C(=O)C(C)(C)C2=CC=C(O2)C(C)(C)C(=O)C(Br)C(Br)C(=O)C(C)(C)C2=CC=C1O2 (stereo unspecified)	–	> 100	–	18.1	–	> 100 µM	–	> 46.4	–	> 100	–	> 100	–	> 87	–	> 100	–	> 100	–	9.56
c1cc(OCCN2CCCC2)ccc1CNc1ccc2nc(CCC3CCCCC3)[nH]c2c1	1.83	4.04	1.79	3.72	1.55	3.7 µM	2.29	5.99	–	–	0.535	2.23	1.6	3.23	1.86	6.51	1.62	4.53	1.35	3.64
COc1cc2c3c(n(CCCN=[N+]=[N-])c(=O)c2cc1OC)-c1ccc(F)cc1C3=O	> 100	> 100	44.4	> 100	79.3	> 100 µM	3.8	> 100	49.2	> 100	12.3	> 100	5.16	> 100	89.4	> 100	> 100	> 100	1.7	10.8
COc1ccc(Sc2[nH]c(C=O)c3ccccc23)cc1	20.1	49.6	5.09	28.4	11.6	24.4 µM	14.9	28.8	15.1	30	4.02	14.1	12.4	26	5.49	34.1	6.44	33.6	7.13	26
O=C(Nc1ccc(I)cc1F)c1cc(Br)ccc1O	0.707	4.29	0.472	3.5	0.743	6.72 µM	0.592	11.4	0.393	2.04	3.29	> 35.1	0.603	4.49	1.04	7.22	0.346	2.62	0.321	1.63
CCCCN(CCCC)P(=O)(Oc1ccccc1)Oc1ccccc1	8.04	22.4	4.54	18.7	4.73	22 µM	5.78	19.3	15.3	29.2	4.95	21.6	11.6	25.6	3.39	17.2	6.6	24.8	5.12	26.8
CC(C)[C@@]12C[C@@H](OC(=O)C3CO3)[C@@](C)(O1)[C@@H]1CC[C@@H](C)[C@H]1[C@@H]2OC(=O)/C=C/c1ccccc1 (stereo partly specified)	19.2	39.4	22.7	68.3	21.1	60.6 µM	2.34	7.79	18.4	37.9	33.6	> 100	24.4	88.5	18.2	50.9	0.354	3.11	20.4	55.2
CC[C@]12CN3CCc4c([nH]c5ccccc45)[C@@](C(=O)OC)(c4cc5c(cc4OC)N(C)[C@H]4[C@@](O)(C(=O)OC)[C@H](OC(C)=O)[C@]6(CC)C=CCN7CC[C@]54[C@@H]76)CC(C3)[C@H]1O2 (stereo partly specified)	0.161	> 100	0.088	–	2.92	9.43 µM and > 28.1 µM	2.14	> 100	–	93.1	0.131	> 73.5	0.239	25.1	0.256	> 100	–	72.3	0.138	> 100
CCOC(=O)c1c(NN2CCN(CC(F)(F)F)CC2)oc(/C=C2\C=Nc3ncccc32)c1O	6.45	25.1	1.85	4.67	6.59	46.7 µM	5.85	77.4	11	29.9	2.47	17.1	4.77	24.4	11.1	33.2	0.913	6.72	4.25	20.7
COc1ccc(C2c3ccc4ccccc4c3Oc3ncn(CCCn4ccnc4)c(=N)c32)cc1OC (stereo unspecified)	3.07	11.4	2.04	4.05	3.37	12.8 µM	4.42	16.2	1.79	3.5	2.2	5.6	1.98	3.83	–	–	2.26	7.46	2.81	8.58
